Measured values: patent US12642270B2, “Substituted thiophene carboxamides, thiophene carboxylic acids and derivatives thereof” (Bayer Aktiengesellschaft, priority 2019, dated 2026)

assay: Log P by HPLC on reversed phase columns (EEC directive 79/831 Annex V.A8); type: physicochemical; conditions: LogP method [a]; compounds of formula (I), Table 1.1
How it was run: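 Values come from retention times calibrated against alkan-2-ones (3–16 carbons) by linear interpolation, using reversed-phase LC-UV per EEC directive 79/831 Annex V.A8. Acetonitrile gradient 10–95% with 0.1% formic acid [a], 0.001 M ammonium acetate [b] or 0.1% phosphoric acid [c]; several values within one method separated by "+".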

| SMILES | LogP |
| --- | --- |
| COC(=O)C(NC(=O)c1sc(Br)c(C#N)c1Br)C1CC1 (centres unmarked) [1.0409] | 3.02^[a] |
| CCOC(=O)C(NC(=O)c1sc(Br)c(C#N)c1Br)C(C)C (centres unmarked) [1.0410] | 3.84^[a] |
| CCOC(=O)C(CCSC)NC(=O)c1sc(Br)c(C#N)c1Br (centres unmarked) [1.0411] | 3.55^[a] |
| CCOC(=O)C(Cc1ccccc1)NC(=O)c1sc(Br)c(C#N)c1Br (centres unmarked) [1.0412] | 4.08^[a] |
| COC(=O)C(C1CC1)N(O)C(=O)c1sc(Br)c(Br)c1F (centres unmarked) [1.0413] | 2.77^[a] |
| CCOC(=O)C(Cc1ccccc1)NC(=O)c1sc(Br)c(Cl)c1F (centres unmarked) [1.0433] | 4.48^[a] |
| COC(=O)C(CCSC)NC(=O)c1sc(Br)c(Br)c1F (centres unmarked) [1.0434] | 3.57^[a] |
| CCOC(=O)C(CC(C)C)NC(=O)c1cc(F)c(Br)s1 (centres unmarked) [1.0435] | 3.80^[a] |
| CCOC(=O)C(CC(C)C)NC(=O)c1cc(Br)c(Cl)s1 (centres unmarked) [1.0436] | 4.23^[a] |
| CCOC(=O)C(NC(=O)c1cc(Br)c(Cl)s1)C(C)C (centres unmarked) [1.0437] | 3.87^[a] |
| CCOC(=O)C1(NC(=O)c2cc(Br)c(Cl)s2)CCC1 [1.0439] | 3.44^[a] |
| COC(=O)C(CC(F)F)NC(=O)c1sc(Br)c(Br)c1F (centres unmarked) [1.0440] | 3.23^[a] |
| CCOC(=O)C(NC(=O)c1cc(Cl)c(Br)s1)C(C)C (centres unmarked) [1.0441] | 3.85^[a] |
| COC(=O)C(CC(F)F)NC(=O)c1cc(Cl)c(Br)s1 (centres unmarked) [1.0442] | 2.96^[a] |
| CCOC(=O)C(Cc1ccccc1)NC(=O)c1cc(Cl)c(Br)s1 (centres unmarked) [1.0443] | 4.01^[a] |
| CCOC(=O)C(CC(C)C)NC(=O)c1cc(Cl)c(Br)s1 (centres unmarked) [1.0444] | 4.19^[a] |
| CCOC(=O)C1(CNC(=O)c2sc(Br)c(Br)c2F)CC1 [1.0445] | 3.86^[a] |
| CCOC(=O)C1(NC(=O)c2sc(Br)c(Br)c2F)CCCC1 [1.0446] | 4.21^[a] |
| COC(=O)C1(NC(=O)c2sc(Br)c(Br)c2F)CCOCC1 [1.0447] | 2.77^[a] |
| CCOC(=O)CCNC(=O)c1sc(Br)c(Br)c1F [1.0450] | 3.11^[a] |
| CCOC(=O)C(NC(=O)c1sc(Br)c(Br)c1F)C(C)C (centres unmarked) [1.0451] | 2.63^[a] |
| CCOC(=O)C1(NC(=O)c2cc(Cl)c(Br)s2)CCC1 [1.0452] | 3.29^[a] |
| CCOC(=O)C1(NC(=O)c2cc(Cl)c(Br)s2)CC1 [1.0454] | 2.80^[a] |
| O=C(NC1(C(=O)O)CC1)c1cc(Cl)c(Br)s1 [1.0455] | 1.99^[a] |
| CCOC(=O)CCNC(=O)c1cc(F)c(Br)s1 [1.0456] | 2.47^[a] |
| CCOC(=O)C1(NC(=O)c2cc(Br)c(Cl)s2)CC1 [1.0458] | 3.43^[a] |
| CCOC(=O)C1(NC(=O)c2cc(F)c(Br)s2)CCC1 [1.0459] | 2.98^[a] |

| SMILES | LogP |
| --- | --- |
| CCOC(=O)C1(NC(=O)c2cc(F)c(Br)s2)CC1 [1.0460] | 2.51^[a] |
| CCOC(=O)C1(NC(=O)c2sc(C)c(Br)c2F)CC1 [1.0463] | 2.80^[a] |
| CCOC(=O)C1(NC(=O)c2cc(C)c(Cl)s2)CC1 [1.0466] | 2.52^[a] |
| CCOC(=O)C1(NC(=O)c2cc(I)c(I)s2)CC1 [1.0468] | 2.98^[a] |
| O=C(NC1(C(=O)O)CC1)c1cc(I)c(I)s1 [1.0469] | 2.08^[a] |
| NC(=O)C1(NC(=O)C2(NC(=O)c3cc(I)c(I)s3)CC2)CC1 [1.0470] | 1.88^[a] |
| COC(=O)C(Cc1ccccc1)NC(=O)c1sc(Br)c(Br)c1F (centres unmarked) [1.0472] | 4.06^[a] |
| CSCCC(NC(=O)c1sc(Br)c(Br)c1F)C(=O)O (centres unmarked) [1.0473] | 2.75^[a] |
| O=C(O)CNC(=O)CNC(=O)c1cc(I)c(I)s1 [1.0474] | 1.63^[a] |
| NC(=O)C1(NC(=O)c2cc(I)c(I)s2)CC1 [1.0475] | 1.87^[a] |
| CCOC(=O)C1(NC(=O)C2(NC(=O)c3cc(I)c(I)s3)CC2)CC1 [1.0476] | 2.59^[a] |
| CSC(=O)C1(NC(=O)c2cc(I)c(I)s2)CC1 [1.0477] | 3.04^[a] |
| O=C(NC1(C(=O)NC2(C(=O)O)CC2)CC1)c1cc(I)c(I)s1 [1.0478] | 1.53^[a] |
| CCSC(=O)C1(NC(=O)c2cc(I)c(I)s2)CC1 [1.0480] | 3.39^[a] |
| O=C(NC1(C(=O)O)COC1)c1sc(Br)c(Br)c1F [1.0489] | 1.98^[a] |
| O=C(NC1(C(=O)O)CCC1)c1sc(Br)c(Br)c1Cl [1.0490] | 2.92^[a] |
| CCOC(=O)C(NC(=O)c1sc(Br)c(Br)c1F)C1CC1 (centres unmarked) [1.0495] | 3.98^[a] |
| CCOC(=O)C(NC(=O)c1sc(Br)c(C(F)F)c1Br)C(C)C (centres unmarked) [1.0502] | 4.21^[a] |
| COC(=O)C(NC(=O)c1sc(Br)c(C(F)F)c1Br)C1CC1 (centres unmarked) [1.0503] | 3.37^[a] |
| CCOC(=O)C(Cc1ccccc1)NC(=O)c1sc(Br)c(C(F)F)c1Br (centres unmarked) [1.0504] | 4.40^[a] |
| COC(=O)C1(NC(=O)c2sc(Br)c(C(F)F)c2Br)CCC1 [1.0505] | 3.25^[a] |
| CCOC(=O)C1(NC(=O)c2sc(Br)c(C(F)F)c2Br)CCC1 [1.0506] | 3.66^[a] |
| CCCOC(=O)C1(NC(=O)c2sc(Br)c(C(F)F)c2Br)CC1 [1.0507] | 3.42^[a] |
| O=C(NC1(C(=O)OC2CCC2)CC1)c1sc(Br)c(C(F)F)c1Br [1.0508] | 3.57^[a] |
| N#CCNC(=O)c1sc(Br)c(C(F)F)c1Br [1.0509] | 2.37^[a] |
| COC(=O)C1(NC(=O)c2sc(C(F)F)c(Br)c2Br)CC1 [1.0512] | 2.79^[a] |

Second part, the molecule after the results:

| LogP | SMILES |
| --- | --- |
| 3.17^[a] | CCOC(=O)C1(NC(=O)c2sc(Cl)c(Cl)c2C(F)F)CC1 [1.0414] |
| 2.61^[a] | COC(=O)CNC(=O)c1sc(Cl)c(Cl)c1C(F)F [1.0415] |
| 2.97^[a] | CCOC(=O)CNC(=O)c1sc(Cl)c(Cl)c1C(F)F [1.0416] |
| 3.33^[a] | COC(=O)C(NC(=O)c1sc(Cl)c(Cl)c1C(F)F)C1CC1 (centres unmarked) [1.0417] |
| 4.13^[a] | CCOC(=O)C(NC(=O)c1sc(Cl)c(Cl)c1C(F)F)C(C)C (centres unmarked) [1.0418] |
| 3.86^[a] | CCOC(=O)C(CCSC)NC(=O)c1sc(Cl)c(Cl)c1C(F)F (centres unmarked) [1.0419] |
| 4.33^[a] | CCOC(=O)C(Cc1ccccc1)NC(=O)c1sc(Cl)c(Cl)c1C(F)F (centres unmarked) [1.0420] |
| 2.33^[a] | N#CCNC(=O)c1sc(Br)c(Cl)c1F [1.0421] |
| 2.47^[a] | COC(=O)CNC(=O)c1sc(Br)c(Cl)c1F [1.0422] |
| 2.92^[a] | CCOC(=O)CNC(=O)c1sc(Br)c(Cl)c1F [1.0423] |
| 2.72^[a] | COC(=O)C1(NC(=O)c2sc(Br)c(Cl)c2F)CC1 [1.0424] |
| 3.38^[a] | CCOC(=O)C(C)NC(=O)c1sc(Br)c(Cl)c1F (centres unmarked) [1.0425] |
| 3.09^[a] | CCOC(=O)C1(NC(=O)c2sc(Br)c(Cl)c2F)CC1 [1.0426] |
| 3.38^[a] | COC(=O)C(NC(=O)c1sc(Br)c(Cl)c1F)C1CC1 (centres unmarked) [1.0427] |
| 3.73^[a] | CCOC(=O)C1(NC(=O)c2sc(Br)c(Cl)c2F)CCC1 [1.0428] |
| 4.38^[a] | CCOC(=O)C(NC(=O)c1sc(Br)c(Cl)c1F)C(C)C (centres unmarked) [1.0429] |
| 3.21^[a] | COC(=O)C(CC(F)F)NC(=O)c1sc(Br)c(Cl)c1F (centres unmarked) [1.0430] |
| 4.64^[a] | CCOC(=O)C(CC(C)C)NC(=O)c1sc(Br)c(Cl)c1F (centres unmarked) [1.0431] |
| 3.96^[a] | CCOC(=O)C(CCSC)NC(=O)c1sc(Br)c(Cl)c1F (centres unmarked) [1.0432] |
| 3.07^[a] | COC(=O)C(CC(F)F)NC(=O)c1cc(Br)c(Cl)s1 (centres unmarked) [1.0438] |
| 3.14^[a] | COC(=O)CC(C)NC(=O)c1sc(Br)c(Br)c1F (centres unmarked) [1.0448] |
| 2.97^[a] | CCOC(=O)CNC(=O)c1sc(Br)c(Br)c1F [1.0449] |
| 2.80^[a] | CCOC(=O)CCNC(=O)c1cc(Br)c(Cl)s1 [1.0453] |
| 2.63^[a] | CCOC(=O)CNC(=O)c1cc(Br)c(Cl)s1 [1.0457] |

| LogP | SMILES |
| --- | --- |
| 2.59^[a] | CCOC(=O)CNC(=O)c1cc(Cl)c(Br)s1 [1.0461] |
| 2.77^[a] | CCOC(=O)CCNC(=O)c1cc(Cl)c(Br)s1 [1.0462] |
| 2.33^[a] | CCOC(=O)CNC(=O)c1cc(C)c(Cl)s1 [1.0464] |
| 2.49^[a] | CCOC(=O)CCNC(=O)c1cc(C)c(Cl)s1 [1.0465] |
| 2.28^[a] | CCOC(=O)CNC(=O)c1cc(F)c(Br)s1 [1.0467] |
| 1.87^[a] | O=C(O)CNC(=O)c1cc(I)c(I)s1 [1.0471] |
| 3.92^[a] | CCOC(=O)C1(NC(=S)c2cc(Cl)c(Br)s2)CC1 [1.0479] |
| 2.78^[a] | CCOC(=O)CCNC(=O)c1sc(C)c(Br)c1F [1.0481] |
| 3.91^[a] | CCOC(=O)C(C)NC(=O)c1sc(Cl)c(Br)c1Br (centres unmarked) [1.0482] |
| 3.08^[a] | COC(=O)C1(NC(=O)c2sc(Cl)c(Br)c2Br)CC1 [1.0483] |
| 4.59^[a] | CCOC(=O)CNC(=S)c1sc(Cl)c(Br)c1Cl [1.0484] |
| 4.08^[a] | COC(=O)CNC(=S)c1sc(Cl)c(Br)c1Cl [1.0485] |
| 2.95^[a] | O=C(NC1(C(=O)O)CCC1)c1sc(Cl)c(Br)c1Cl [1.0486] |
| 2.95^[a] | CCOC(=O)CN(O)C(=O)c1sc(Cl)c(Cl)c1Br [1.0491] |
| 2.92^[a] | COC(=O)CNC(=O)c1sc(Br)c(Br)c1Cl [1.0492] |
| 4.58^[a] | CCOC(=O)CNC(=S)c1sc(Br)c(Br)c1Cl [1.0493] |
| 2.28^[a] | O=C(O)CNC(=O)c1sc(Br)c(Br)c1Cl [1.0494] |
| 4.62^[a] | COC(=O)C(NC(=S)c1sc(Br)c(Br)c1F)C1CC1 (centres unmarked) [1.0496] |
| 5.32^[a] | COC(=O)C(Cc1ccccc1)NC(=S)c1sc(Br)c(Br)c1F (centres unmarked) [1.0497] |
| 3.40^[a] | COC(=O)CC[C@H](NC(=O)c1sc(Br)c(Br)c1Cl)C(=O)OC [1.0498] |
| 4.12^[a] | COC(=O)CNC(=S)c1sc(Cl)c(Cl)c1I [1.0499] |
| 3.10^[a] | O=C(O)CNC(=S)c1sc(Cl)c(Br)c1Cl [1.0500] |
| 3.02^[a] | CCOC(=O)CNC(=O)c1sc(C(F)F)c(Br)c1Br [1.0510] |
| 2.64^[a] | COC(=O)CNC(=O)c1sc(C(F)F)c(Br)c1Br [1.0511] |
